Source: ChEMBL document CHEMBL2417369, “Synthesis and evaluation of heteroaryl substituted diazaspirocycles as scaffolds to probe the ATP-binding site of protein kinases” (Bioorg Med Chem, 2013)

Tests used:
[1] = target: Proto-oncogene tyrosine-protein kinase Src (Homo sapiens, UniProt P12931); assay: Inhibition of SRC (unknown origin) by microfluidic mobility shift assay
[2] = target: Tyrosine-protein kinase Lck (Homo sapiens, UniProt P06239); assay: Inhibition of LCK (unknown origin) by microfluidic mobility shift assay
Chain of Tyrosine-protein kinase Lck (P06239 whole entry): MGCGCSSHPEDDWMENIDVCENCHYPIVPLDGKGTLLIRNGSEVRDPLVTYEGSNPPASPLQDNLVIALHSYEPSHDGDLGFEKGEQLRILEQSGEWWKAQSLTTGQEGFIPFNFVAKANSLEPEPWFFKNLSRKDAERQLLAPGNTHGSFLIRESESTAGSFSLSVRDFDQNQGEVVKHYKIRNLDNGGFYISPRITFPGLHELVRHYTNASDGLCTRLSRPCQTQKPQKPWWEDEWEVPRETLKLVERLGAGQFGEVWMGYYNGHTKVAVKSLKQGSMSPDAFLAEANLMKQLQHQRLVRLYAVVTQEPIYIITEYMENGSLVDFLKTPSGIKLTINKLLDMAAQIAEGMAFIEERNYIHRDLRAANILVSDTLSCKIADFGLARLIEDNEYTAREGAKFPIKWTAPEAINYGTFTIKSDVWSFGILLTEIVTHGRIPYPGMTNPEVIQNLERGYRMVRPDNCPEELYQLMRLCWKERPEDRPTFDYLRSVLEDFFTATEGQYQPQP

[3] = target: Tyrosine-protein kinase Lyn (Homo sapiens, UniProt P07948); assay: Inhibition of LYN (unknown origin) by microfluidic mobility shift assay
Chain of Tyrosine-protein kinase Lyn (P07948 whole entry): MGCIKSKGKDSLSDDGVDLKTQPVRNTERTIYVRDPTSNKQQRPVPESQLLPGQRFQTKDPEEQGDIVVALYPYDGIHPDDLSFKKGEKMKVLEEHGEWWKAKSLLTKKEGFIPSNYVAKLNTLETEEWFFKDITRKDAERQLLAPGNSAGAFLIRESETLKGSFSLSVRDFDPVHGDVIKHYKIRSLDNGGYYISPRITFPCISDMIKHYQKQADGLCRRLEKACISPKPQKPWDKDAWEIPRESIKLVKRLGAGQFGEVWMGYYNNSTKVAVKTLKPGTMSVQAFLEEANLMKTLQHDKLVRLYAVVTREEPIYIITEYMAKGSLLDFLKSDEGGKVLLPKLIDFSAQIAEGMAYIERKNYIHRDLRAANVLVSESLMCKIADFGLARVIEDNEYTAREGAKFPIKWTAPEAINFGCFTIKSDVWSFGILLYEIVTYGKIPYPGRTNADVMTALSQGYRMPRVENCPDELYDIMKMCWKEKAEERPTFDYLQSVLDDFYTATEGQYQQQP

[4] = target: Tyrosine-protein kinase Fyn (Homo sapiens, UniProt P06241); assay: Inhibition of FYN (unknown origin) by microfluidic mobility shift assay
Chain of Tyrosine-protein kinase Fyn (P06241 whole entry): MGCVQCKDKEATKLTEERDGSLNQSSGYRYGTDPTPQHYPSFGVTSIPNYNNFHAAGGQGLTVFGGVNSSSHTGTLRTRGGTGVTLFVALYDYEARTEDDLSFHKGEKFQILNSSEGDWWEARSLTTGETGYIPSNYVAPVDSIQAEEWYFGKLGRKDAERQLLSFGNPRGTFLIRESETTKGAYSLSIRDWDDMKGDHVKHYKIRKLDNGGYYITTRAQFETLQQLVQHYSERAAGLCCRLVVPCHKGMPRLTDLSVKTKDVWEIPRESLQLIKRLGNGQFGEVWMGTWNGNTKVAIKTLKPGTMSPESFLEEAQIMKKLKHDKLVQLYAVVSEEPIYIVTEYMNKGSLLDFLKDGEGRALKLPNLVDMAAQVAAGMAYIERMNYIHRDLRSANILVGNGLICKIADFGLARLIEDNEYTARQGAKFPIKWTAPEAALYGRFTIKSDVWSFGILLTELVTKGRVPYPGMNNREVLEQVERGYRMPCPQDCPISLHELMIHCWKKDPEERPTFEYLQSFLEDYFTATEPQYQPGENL

[5] = target: Tyrosine-protein kinase ABL1 (Homo sapiens, UniProt P00519); assay: Inhibition of ABL (unknown origin) by microfluidic mobility shift assay
[6] = target: Glycogen synthase kinase-3 beta (Homo sapiens, UniProt P49841); assay: Inhibition of GSK3beta (unknown origin) by microfluidic mobility shift assay
[7] = target: Mitogen-activated protein kinase 3 (Homo sapiens, UniProt P27361); assay: Inhibition of ERK1 (unknown origin) by microfluidic mobility shift assay
Chain of Mitogen-activated protein kinase 3 (P27361 whole entry): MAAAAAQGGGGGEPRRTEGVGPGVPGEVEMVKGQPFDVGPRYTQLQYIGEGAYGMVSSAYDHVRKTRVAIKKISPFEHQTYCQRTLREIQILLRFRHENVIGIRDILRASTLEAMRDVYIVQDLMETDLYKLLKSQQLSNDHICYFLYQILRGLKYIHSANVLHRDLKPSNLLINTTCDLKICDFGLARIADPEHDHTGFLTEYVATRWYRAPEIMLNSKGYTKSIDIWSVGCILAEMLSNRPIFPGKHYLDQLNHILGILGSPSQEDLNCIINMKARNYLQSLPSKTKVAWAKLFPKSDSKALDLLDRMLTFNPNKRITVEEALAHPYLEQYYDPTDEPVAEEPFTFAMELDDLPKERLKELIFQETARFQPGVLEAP

[8] = target: Serine/threonine-protein kinase Chk2 (Homo sapiens, UniProt O96017); assay: Inhibition of CHK2 (unknown origin) by microfluidic mobility shift assay
[9] = target: Serine/threonine-protein kinase D2 (Homo sapiens, UniProt Q9BZL6); assay: Inhibition of PKD2 (unknown origin) by microfluidic mobility shift assay
Chain of Serine/threonine-protein kinase D2 (Q9BZL6 whole entry): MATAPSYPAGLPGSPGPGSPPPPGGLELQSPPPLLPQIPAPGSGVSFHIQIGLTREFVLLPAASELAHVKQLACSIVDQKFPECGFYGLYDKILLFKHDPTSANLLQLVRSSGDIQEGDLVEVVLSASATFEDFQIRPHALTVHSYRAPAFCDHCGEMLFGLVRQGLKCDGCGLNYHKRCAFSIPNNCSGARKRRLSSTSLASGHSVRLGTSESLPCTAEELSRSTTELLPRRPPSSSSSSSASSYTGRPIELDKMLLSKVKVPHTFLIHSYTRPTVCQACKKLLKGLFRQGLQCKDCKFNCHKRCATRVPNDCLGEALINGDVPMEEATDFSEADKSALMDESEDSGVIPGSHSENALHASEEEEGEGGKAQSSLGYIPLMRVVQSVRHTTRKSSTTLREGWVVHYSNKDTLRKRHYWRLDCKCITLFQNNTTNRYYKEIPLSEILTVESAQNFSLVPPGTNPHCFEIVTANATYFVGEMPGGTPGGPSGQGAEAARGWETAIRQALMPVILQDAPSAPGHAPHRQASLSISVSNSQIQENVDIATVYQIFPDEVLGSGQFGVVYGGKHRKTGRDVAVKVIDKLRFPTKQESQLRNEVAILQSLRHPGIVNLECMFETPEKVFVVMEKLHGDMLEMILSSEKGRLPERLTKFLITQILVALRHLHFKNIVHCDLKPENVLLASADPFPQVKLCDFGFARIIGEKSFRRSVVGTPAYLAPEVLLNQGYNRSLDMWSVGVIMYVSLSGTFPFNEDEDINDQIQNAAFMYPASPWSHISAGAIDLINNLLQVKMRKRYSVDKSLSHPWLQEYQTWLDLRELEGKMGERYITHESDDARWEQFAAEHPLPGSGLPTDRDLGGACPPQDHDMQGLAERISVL

[10] = Inhibition of MAPK (unknown origin) by microfluidic mobility shift assay; design: species or system Homo sapiens
[11] = target: Ribosomal protein S6 kinase alpha-1 (Homo sapiens, UniProt Q15418); assay: Inhibition of RSK1 (unknown origin) by microfluidic mobility shift assay
[12] = target: Ribosomal protein S6 kinase alpha-5 (Homo sapiens, UniProt O75582); assay: Inhibition of MSK1 (unknown origin) by microfluidic mobility shift assay
Chain of Ribosomal protein S6 kinase alpha-5 (O75582 whole entry): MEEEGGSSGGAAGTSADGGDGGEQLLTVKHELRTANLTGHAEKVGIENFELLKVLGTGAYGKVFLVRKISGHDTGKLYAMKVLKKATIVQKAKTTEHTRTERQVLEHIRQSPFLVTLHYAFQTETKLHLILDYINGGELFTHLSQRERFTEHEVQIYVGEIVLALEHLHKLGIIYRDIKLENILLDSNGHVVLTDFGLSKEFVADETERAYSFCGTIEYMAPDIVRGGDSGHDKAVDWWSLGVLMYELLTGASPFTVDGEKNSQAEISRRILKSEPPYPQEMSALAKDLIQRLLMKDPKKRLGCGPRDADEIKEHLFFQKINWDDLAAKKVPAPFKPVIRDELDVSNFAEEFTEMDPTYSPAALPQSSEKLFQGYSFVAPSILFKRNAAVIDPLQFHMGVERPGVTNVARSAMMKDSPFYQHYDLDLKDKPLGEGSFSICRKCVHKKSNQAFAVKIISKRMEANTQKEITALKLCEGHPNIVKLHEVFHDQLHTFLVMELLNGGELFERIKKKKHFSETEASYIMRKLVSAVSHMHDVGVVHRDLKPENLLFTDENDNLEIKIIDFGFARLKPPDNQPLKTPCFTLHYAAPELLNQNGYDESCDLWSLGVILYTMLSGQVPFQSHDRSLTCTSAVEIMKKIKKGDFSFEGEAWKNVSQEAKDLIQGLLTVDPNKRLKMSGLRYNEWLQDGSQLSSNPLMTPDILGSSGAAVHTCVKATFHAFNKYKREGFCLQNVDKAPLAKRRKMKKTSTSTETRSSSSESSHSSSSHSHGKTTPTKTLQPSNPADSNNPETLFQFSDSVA

[13] = target: RAC-beta serine/threonine-protein kinase (Homo sapiens, UniProt P31751); assay: Inhibition of AKT2 (unknown origin) by microfluidic mobility shift assay
[14] = target: RAC-alpha serine/threonine-protein kinase (Homo sapiens, UniProt P31749); assay: Inhibition of AKT1 (unknown origin) by microfluidic mobility shift assay
Chain of RAC-alpha serine/threonine-protein kinase (P31749 whole entry): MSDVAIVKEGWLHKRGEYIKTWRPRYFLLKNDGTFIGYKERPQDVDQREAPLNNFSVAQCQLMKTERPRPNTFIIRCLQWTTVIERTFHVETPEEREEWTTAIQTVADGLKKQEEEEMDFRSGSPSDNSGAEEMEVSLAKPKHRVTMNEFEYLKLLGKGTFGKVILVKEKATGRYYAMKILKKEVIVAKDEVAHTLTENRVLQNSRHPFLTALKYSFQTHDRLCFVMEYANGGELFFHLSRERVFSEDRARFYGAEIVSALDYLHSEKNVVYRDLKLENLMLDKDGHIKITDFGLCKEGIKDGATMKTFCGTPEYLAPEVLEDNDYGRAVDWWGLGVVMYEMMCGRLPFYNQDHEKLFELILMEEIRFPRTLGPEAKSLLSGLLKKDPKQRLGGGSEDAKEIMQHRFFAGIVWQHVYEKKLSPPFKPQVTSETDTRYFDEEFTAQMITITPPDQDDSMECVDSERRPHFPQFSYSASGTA

[15] = target: Hepatocyte growth factor receptor (Homo sapiens, UniProt P08581); assay: Inhibition of MET (unknown origin) by microfluidic mobility shift assay
[16] = target: Protein kinase C zeta type (Homo sapiens, UniProt Q05513); assay: Inhibition of PKCzeta (unknown origin) by microfluidic mobility shift assay

Chain of Proto-oncogene tyrosine-protein kinase Src (P12931 2-536 limits assumed): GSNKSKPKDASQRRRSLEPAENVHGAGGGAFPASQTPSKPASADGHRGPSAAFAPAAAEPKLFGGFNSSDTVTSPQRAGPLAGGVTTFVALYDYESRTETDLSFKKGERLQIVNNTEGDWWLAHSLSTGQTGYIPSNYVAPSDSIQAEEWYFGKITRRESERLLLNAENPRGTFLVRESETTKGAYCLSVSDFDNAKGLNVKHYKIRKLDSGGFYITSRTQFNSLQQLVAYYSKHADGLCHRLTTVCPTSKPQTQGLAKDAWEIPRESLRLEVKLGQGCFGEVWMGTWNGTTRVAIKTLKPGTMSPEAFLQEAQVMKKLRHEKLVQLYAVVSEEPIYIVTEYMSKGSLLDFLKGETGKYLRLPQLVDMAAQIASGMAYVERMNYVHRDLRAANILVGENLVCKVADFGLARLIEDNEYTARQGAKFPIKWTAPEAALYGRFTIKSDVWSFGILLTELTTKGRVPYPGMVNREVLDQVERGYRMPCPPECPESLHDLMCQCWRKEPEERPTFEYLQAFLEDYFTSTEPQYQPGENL

SMILES	IC50 [1]	IC50 [2]	IC50 [3]	IC50 [4]	IC50 [5]	IC50 [6]	IC50 [7]	IC50 [8]	IC50 [9]	IC50 [10]	IC50 [11]	IC50 [12]	IC50 [13]	IC50 [14]	IC50 [15]	IC50 [16]
c1nc(N2CCC3(CCCCN3)CC2)c2nc[nH]c2n1	150 µM	113 µM	178 µM	158 µM	126 µM	138 µM	60 µM	41 µM	46 µM	103 µM	63 µM	5.3 µM	66 µM	14 µM	–	–
c1nc(N2CCC3(CCCNC3)CC2)c2nc[nH]c2n1	18 µM	20 µM	14 µM	26 µM	7 µM	55 µM	37 µM	–	1.3 µM	19 µM	–	0.7 µM	9.5 µM	1.6 µM	183 µM	74 µM
